# Patent US20220160779A1, “COMPOSITION FOR PROMOTING CARTILAGE TISSUE REGENERATION” (National University Corporation Tokyo Medical and Dental …, priority 2019, published 2022)
# B1: IL10: recombinant IL10 protein (protein, UniProt P22301 19-178, looked up)
# Interleukin-10: SPGQGTQSENSCTHFPGNLPNMLRDLRDAFSRVKTFFQMKDQLDNLLLKESLLEDFKGYLGCQALSEMIQFYLEEVMPQAENQDPDIKAHVNSLGENLKTLRLRLRRCHRFLPCENKSKAVEQVKNAFNKLQEKGIYKAMSEFDIFINYIEAYMTMKIRN
# B2: FGF18: FGF18 given by intra-articular administration (protein, UniProt O76093 28-207, looked up)
# Fibroblast growth factor 18: EENVDFRIHVENQTRARDDVSRKQLRLYQLYSRTSGKHIQVLGRRISARGEDGDKYAQLLVETDTFGSQVRIKGKETEFYLCMNRKGKLVGKPDGTSKECVFIEKVLENNYTALMSAKYSGWYVGFTKKGRPRKGPKTRENQQDVHFMKRYPKGQPELQKPFKYTTVTKRSRRIRPTHPA
# Legend:
# [1] = test system: rat model of total articular cartilage loss; test: Full thickness articular cartilage defect model; type: in vivo; conditions: 4 weeks after the defect, FIG. 8
# Experimental: Next, in order to verify the regeneration of damaged articular cartilage and the suppression of degenerative degeneration, a model of full thickness articular cartilage defect was prepared to examine the effects of rh Activin A administration. Specifically, a 1.4 mmφ total articular cartilage loss was prepared in the femoral intercondylar region using an airtome, and 180 ng of Activin A (rh Activin A) was injected intra-articularly 1 week later.
# [2] = test system: C57BL/6J mice; test: Medial meniscus anterior 1/2 resection model; type: in vivo, mouse; conditions: intra-articular on day 7; 10 days after resection; FIG. 7A
# Source text: Twenty male C57BL/6J mice (8 weeks old, weight: about 25 g) were used for this study (5 mice in each group. ORIENTAL YEAST Co., Ltd. Tokyo, Japan). After anesthesia by isoflurane inhalation, a straight incision was made in the left anterior knee, and the anterior central side of the joint capsule was cut. The patellar tendon was then dislocated laterally to expose the anterior corner of the medial meniscus (see Hiyama K. et al, J Orthop Res., 2017, 35(9), pp. 1958 to 1965). The anterior corner of the meniscus was cut and dislocated anteriorly using forceps. The medial meniscus was cut perpendicularly at the medial collateral ligament, and the anterior portion of the medial meniscus was resected in a microscopic operation using a surgical microscope. The skin was closed in layers with non-absorbable sutures. Note that the right knee was subjected to sham surgery. In addition, the mice were kept under a 12-hour light/dark cycle with free movement, free feeding, and drinking water.
# Recombinant human Activin A (42 ng/6 μL in PBS) and/or rh PDGF-AA (174 ng/6 μL in PBS) was injected intra-articularly on postoperative day 7 (see Hoshino T. et al., BMC Musculoskelet Disord., 2018, 19(1): 291). […]
# Tissue samples were fixed in 4% paraformaldehyde for 3 to 4 days and subjected to decalcification in 20% ethylenediaminetetraacetic acid (EDTA) solution for 21 days. Then, they were embedded in paraffin wax. The specimens were then cut to a 5 μm thickness in the sagittal plane and stained with safranin O/Fast Green or hematoxylin/eosin (H&E) to histologically evaluate meniscus regeneration.
# A modified Pauli's score system was used to histologically quantify meniscus regeneration (see Hiyama K. et al, J Orthop Res. 2017, 35(9), pp. 1958 to 1965). Histological evaluation was performed by two investigators in a blind manner.
# Type I and II collagen immunostaining was performed as described in Tsuji K. et al, Cell Transplant., 2017, 26(6), pp. 1089 to 1102. That is, sections were subjected to deparaffinization with xylene (Wako Pure Chemical Industries, Tokyo, Japan), rehydrated stepwise with alcohol, and saturated with phosphate buffered saline (PBS). For type II collagen staining, the samples were pretreated with 50 mM Tris-HCl buffer (Wako Pure Chemical Industries) containing 0.4 mg/ml Proteinase K (Dako, Agilent Technologies, Santa Clara, Calif., USA) for 10 min. For type I collagen staining, no digestion with Proteinase K was performed.
# Next, the cells were treated with methanol containing 0.3% hydrogen peroxide for 30 minutes to suppress the activity of endogenous peroxidase. As primary antibodies, anti-type I collagen antibody (1:200 dilution; Abcam cat. #ab34712, Cambridge, UK) or anti-type II collagen antibody (1:1000 dilution; Abcam […], Cambridge, UK) were added to the sections and incubated at 4° C. overnight. Then, the sections were rinsed with 0.1% PBS-Triton X-100 (MP Biomedicals Inc., Solon, Ohio, USA) and incubated with secondary antibodies diluted 1:200 [Biotinylated goat-derived anti-rabbit immunoglobulin G (IgG), Vector Laboratories, Burlingame, Calif., USA]. Then, the sections were rinsed, the signals were visualized with Vectastain ABC Reagent (Vector Laboratories), and diaminobenzidine staining (DAB, Vector Laboratories) was applied. In addition, the sections were contrast stained with hematoxylin (Muto Pure Chemicals, Tokyo, Japan).
# [3] = test system: synovial MSCs; test: In-vitro differentiation assay of MSCs (cartilage, bone, adipocytes); type: cell-based, human; conditions: added to chondrogenic differentiation medium, pellet culture 2 weeks; FIG. 6C
# Experimental: In-vitro differentiation assays were performed according to the method described in Colter D C. et al, Proc Natl Acad Sci USA, 2001, 98, pp. 7841 to 7845.
# To form chondrogenic spheroids, 2.5×10^5 cells were transferred into 15 mL polypropylene tubes (BD Biosciences) and subjected to centrifugation at 450×g for 10 minutes. Then, the cell pellets were cultured in chondrogenic medium containing 1000 ng/mL rhBMP-2 (Infuse Bone Graft; Medtronic, TN, USA), 10 ng/mL […], and 100 nM dexamethasone (Sigma-Aldrich, MO, USA) for 14 days.
# For calcification, cells were cultured in normal growth medium supplemented with 1 nM dexamethasone, 20 mM β-glycerophosphate, and 50 μg/mL ascorbic acid-2-phosphate (Sigma-Aldrich) for 21 days. Calcified nodule formation was visualized by alizarin red staining (Sigma-Aldrich).
# For adipogenesis, the cells were cultured for 21 days in MEM-alpha supplemented with 10% FBS, 100 nM dexamethasone (Sigma-Aldrich), 0.5 mM IBMX (isobutyl-1-methylxanthine; Sigma-Aldrich), and 50 μM indomethacin (Wako, Tokyo, Japan). The adipogenic cultures were immobilized and stained with Oil Red O solution (Sigma-Aldrich).
# [4] = test system: synovial MSCs; test: Proliferation assay of synovial MSCs with recombinant protein (MTT assay); type: cell-based, human; conditions: for effect of inhibitor on pro-proliferative activity of Activin A / cell count (MTT assay): 0.5% FBS + rh Activin A + inhibitor, FIG. 5E; for proliferation activation of MSCs (MTT assay): recombinant protein added to normal growth medium (10% FBS) up to 100 times the ED50, FIG. 3C
# Experimental: Primary human synovial cells were isolated from the synovial tissues obtained from patients who underwent total knee arthroplasty (TKA), as described in Sekiya I. et al, Clin Orthop Relat Res, 2015, 473(7), pp. 2316 to 2326. That is, first, 0.5 to 1 mg of synovium obtained by incising the suprapatellar bursa was subjected to collagenase D treatment (Sigma, MO, USA, 3 hours at 37° C.) to disperse nucleated cells. Debris was removed by passing the cell dispersion through a 70 μm nylon mesh. Nucleated cells were seeded in a 15 cm dish at 5.7×10^2 cells/cm^2 and maintained and cultured in MEM-alpha medium supplemented with 10% FBS and antibiotics (Gibco, MA, USA) for 14 days. The cells were then separated from the dish in TripLE solution (Gibco) and seeded twice more in a new dish to obtain a sufficient cell count to be used in the experiments. Note that in all experiments, cells within 6 passages were used.
# To evaluate the pro-proliferative activity of recombinant proteins (IL6, IL8, IL10, and Activin A), MTT assays were performed (see FIGS. 3C and 5C-E). Synovial MSCs were seeded to 1×10^3 cells/well in 96-well plates and cultured in 0.2 mL of normal growth medium 1 day before being subjected to recombinant protein treatment. On the following day, the medium was replaced with a fresh one (normal growth medium or medium with a reduced FBS concentration of 0.5% and recombinant protein added (10 times the concentration of ED50 or 100 times the concentration of ED50)). MTT assays were performed at days 0, 1, 3, 5, and 7 according to the method described in Denizot F. et al., J Immunol Methods, 1986, 89(2), pp. 271 to 277.
# In addition, the present inventors tried to clarify the molecular mechanism of MSC proliferative activity by Activin A. It has been reported that the ERK and PI3K signal transduction pathways are activated for MSC proliferation (see Uomizu, M. et al, J Med Dent Sci., 2018, vol. 65, pp. 73 to 82). With the above in mind, Activin A (rh Activin A) was applied to synovial MSCs in the presence of PI3K-PKB/Akt and Erk1/Erk2, a specific inhibitor for each of these signal transduction pathways, and the cell count was measured by MTT assay.
# [5] = test system: rat meniscus damage model; conditions: intra-articular administration; cited from earlier work
Molecule,effect of inhibitor on pro-proliferative activity of Activin A / cell count (MTT assay) [4],proliferation activation of MSCs (MTT assay) [4],further results
PDGF,–,–,"chondrogenic differentiation of the formed tissue [1]: no significant promotion effect; formation of fibrocartilage-like tissue in the articular cartilage defect site ([1]; intra-articular 1 week after defect (rh Activin A 180 ng/knee, rrPDGF-AA 900 ng/knee), vs PBS): promote the formation of fibrocartilage-like tissue; vascular invasion in the regenerated region [2]: observed; formation of chondrocyte aggregates (wet weight) [3]: effect of promoting the formation of chondrocyte aggregates"
"COc1cccc(-c2cc(=O)c3ccccc3o2)c1N [PD98059, reference compound]",further reduced,–,–
"O=c1[nH]c2ccccc2n1C1CCN(Cc2ccc(-c3nc4cc5[nH]cnc5cc4nc3-c3ccccc3)cc2)CC1 [Akt1/2, reference compound]",completely eliminated,–,–
"COc1ccc(-c2ccc3c(N4CCOCC4)nc(N4C[C@@H](C)O[C@@H](C)C4)nc3n2)cc1CO [KU0063794, reference compound]",completely eliminated,–,–
IL8: recombinant human IL8 protein,–,no proliferation activation of MSCs was observed,–
IL6: recombinant human IL6 protein,–,no proliferation activation of MSCs was observed,–
B1,–,no proliferation activation of MSCs was observed,–
B2,–,–,articular cartilage degeneration and cartilage thickness at the tibial plateau [5]: suppress articular cartilage degeneration and increase cartilage thickness at the tibial plateau
